The record followed here is US6410592B1, “Aminomethylcarboxylic acid derivatives” (Akzo Nobel N.V., priority 1998, dated 2002).

The target in data set [1] is T1, human GlyT-1b transporter (Homo sapiens, UniProt P48067).
T1 construct: expressed in transfected cells; host or cells: CHO cells, stably transfected, pcDNA3 expression construct
T1 sequence (P48067 1-652 isoform P48067-3): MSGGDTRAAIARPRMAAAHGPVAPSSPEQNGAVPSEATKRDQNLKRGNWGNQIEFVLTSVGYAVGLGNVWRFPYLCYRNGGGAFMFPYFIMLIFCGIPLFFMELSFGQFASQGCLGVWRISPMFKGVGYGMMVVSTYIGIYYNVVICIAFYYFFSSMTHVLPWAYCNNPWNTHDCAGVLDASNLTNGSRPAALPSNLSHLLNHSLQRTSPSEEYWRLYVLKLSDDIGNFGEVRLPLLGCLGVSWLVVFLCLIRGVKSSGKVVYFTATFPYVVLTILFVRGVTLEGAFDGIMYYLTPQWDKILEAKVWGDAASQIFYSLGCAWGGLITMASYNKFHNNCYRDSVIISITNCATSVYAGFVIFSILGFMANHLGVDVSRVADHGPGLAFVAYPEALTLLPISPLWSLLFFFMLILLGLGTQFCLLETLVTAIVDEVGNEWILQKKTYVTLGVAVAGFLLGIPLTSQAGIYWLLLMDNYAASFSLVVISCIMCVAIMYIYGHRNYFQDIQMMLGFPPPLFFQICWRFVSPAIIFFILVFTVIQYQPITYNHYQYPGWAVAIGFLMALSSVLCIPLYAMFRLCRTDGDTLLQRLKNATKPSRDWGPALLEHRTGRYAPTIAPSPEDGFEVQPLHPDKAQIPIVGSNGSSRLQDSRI
In words: glycine uptake in CHO cells heterologously expressing the human GlyT-1b transporter. Type of data set: cell-based. The note with it: [3H]glycine uptake, CHO cells stably expressing hGlyT-1b, 5 min preincubation, 10 min uptake, 37° C.; for IC50: read-out: pIC50, Inhibition of glycine transport by hGlyT-1 (converted). As for the experimental part: Method for determination of glycine uptake in CHO cells heterologously expressing the human GlyT-1b transporter.
cDNA was generated by PCR according to the method described by Kim, K.-M. et al. Mol. Pharmacol. 1994, 45, 608-617. Sequence was verified by dideoxy sequencing using the ALF DNA sequencer™ (Pharmacia) and cloned into the expression construct pcDNA3 (Invitrogen).
Transfection of hGlyT-1b into CHO cells was performed using a standard calcium phosphate technique as described by Sambrook, J. et al. (1989) in Molecular Cloning: A Laboratory Manual, Cold Spring Harbor Laboratory, Cold Spring Harbor, N.Y.
Stably transfected cells were selected for 1 week in growth medium containing 1 mg.cm^−3 Geneticin. Individual clones were picked for further analysis and positives passaged routinely as described below.
Cells stably expressing the hGlyT-1b gene were cultured at 37° C. in a 5% CO2 atmosphere in DMEM—NUT.MIX. F12 with Glutamax-1 (Gibco) containing Geneticin (0.5 mg.cm^−3, Gibco) and supplemented with 10% Fetalclone II (Hyclone). Maintenance culture was carried out in standard 80 cm^2 ventilated flasks (2 m^−6 filter, Nunc) and cells were subcultured by trypsinisation (Sigma) when confluent.
Cells for uptake studies were plated in 96 well plates (17,000 cells per well) in the absence of Geneticin and cultured for 48 h before use. To measure glycine transport, cells were washed twice with Hanks' balanced salt solution (HBSS) pre-warmed to 37° C. and excess fluid removed before addition of test compounds dissolved in 0.200 cm^3 HBSS. Plates were incubated at 37° C. for 5 minutes before addition of [^3H]glycine (0.050 cm^3, 150 M^−6, 248 Bq.nmol^−1, NEN) and incubation continued for a further 10 minutes. Uptake was terminated by washing cells with ice-cold HBSS before removal of excess fluid and addition of 0.200 cm^3 scintillation cocktail to each well. Plates were sealed with adhesive film, shaken to ensure samples were homogenous before scintillation counting in a plate counter.
Data were analysed using standard curve fitting procedures to produce a pIC50 value for active compounds (where pIC50 is the negative logarithm of the concentration of test compound causing 50% inhibition of uptake).

Each structure is given as a SMILES string. Structures can show the parent of a compound that is named as a salt.

In the case of `CN(CC(=O)O)CC1CCc2cc(C(F)(F)F)ccc2C1c1ccc(F)cc1` (racemic) (as salt: salt) [(+/−)-8, Lithium cis-N-methyl-N-[1-(4-fluorophenyl)-6-trifluoromethyl-1,2,3,4-tetrahydronaphthalen-2-ylmethyl] aminomethylcarboxylate], the melting point (usually the temperature, or range, at which the solid turns liquid) lay in the range of 137 to 142 °C.

Regarding `CN(CC(=O)O)CC1CCc2cc(Oc3ccccc3)ccc2C1c1ccccc1` (racemic) (as salt: salt) [(+/−)-17, Lithium cis-N-methyl-N-(6-phenoxy-1-phenyl-1,2,3,4-tetrahydronaphthalen-2-ylmethyl) aminomethylcarboxylate], the melting point is 191 to 200 °C.

The compound `Cc1ccc2c(c1)CCC(CN(C)CC(=O)O)C2c1ccccc1` (racemic) (as salt: salt) [(+/−)-23, Lithium cis-N-methyl-N-(6-methyl-1-phenyl-1,2,3,4-tetrahydronaphthalen-2-ylmethyl) aminomethylcarboxylate] showed a melting point of 135 to 138 °C.

Consider `COc1ccc2c(c1)CCC(CN(C)CC(=O)O)C2c1ccccc1` (racemic) [(+/−)-4, Lithium cis-N-methyl-N-(6-methoxy-1-phenyl-1,2,3,4-tetrahydronaphthalen-2-ylmethyl) aminomethylcarboxylate], for which the IC50 in data set [1] was 501 nM.

Turning to `CN(CC(=O)O)CC1CCc2cc(C(F)(F)F)ccc2C1c1ccc(F)cc1` (racemic) [(+/−)-8, Lithium cis-N-methyl-N-[1-(4-fluorophenyl)-6-trifluoromethyl-1,2,3,4-tetrahydronaphthalen-2-ylmethyl] aminomethylcarboxylate], in data set [1], the IC50 was 126 nM.

Consider `CN(CC(=O)O)CC1CCc2cc(Oc3ccccc3)ccc2C1c1ccccc1` (racemic) [(+/−)-17, Lithium cis-N-methyl-N-(6-phenoxy-1-phenyl-1,2,3,4-tetrahydronaphthalen-2-ylmethyl) aminomethylcarboxylate], for which the IC50 in data set [1] was 158 nM.

Regarding `Cc1ccc2c(c1)CCC(CN(C)CC(=O)O)C2c1ccccc1` (racemic) [(+/−)-23, Lithium cis-N-methyl-N-(6-methyl-1-phenyl-1,2,3,4-tetrahydronaphthalen-2-ylmethyl) aminomethylcarboxylate], in data set [1], the IC50 is 251 nM.

As to `CN(CC(=O)O)C[C@H]1CCc2cc(OCC(C)(C)C)ccc2[C@H]1c1ccccc1.Cl` (racemic) [(+/−)-34, cis-N-Methyl-N-[6-(2,2-dimethylpropyloxy)-1-phenyl-1,2,3,4-tetrahydronaphthalen-2-ylmethyl] aminomethylcarboxylic acid hydrochloride], the melting point was in the range of 151 to 155 °C. Also, the IC50 in data set [1] is 251 nM.

`COc1ccc2c(c1)CC[C@H](CN(C)CC(=O)O)[C@@H]2c1cccc(C)c1.O=C(O)C(F)(F)F` (relative stereo): the melting point is 96 to 106 °C.

In the case of `CN(CC(=O)O)C[C@H]1CCc2ccccc2[C@H]1c1ccccc1.Cl` (relative stereo), the melting point is 205 to 211 °C (dec.).

In the case of `CN(CC(=O)O)C[C@H]1CCc2cc(-c3ccccc3)ccc2[C@H]1c1ccccc1.Cl` (relative stereo), the melting point is 210 to 221 °C.

In the case of `CN(CC(=O)O)C[C@H]1CCc2cc(C#N)ccc2[C@H]1c1ccccc1.Cl` (relative stereo), the melting point was 197 °C (dec.).

`COC(=O)c1ccc2c(c1)CC[C@H](CN(C)CC(=O)O)[C@@H]2c1ccccc1.Cl` (relative stereo) showed a melting point of 166 to 171 °C.

With `CN(CC(=O)O)C[C@H]1CCc2cc(OC3CCCCC3)ccc2[C@H]1c1ccccc1.Cl` (relative stereo), the melting point is > 210 °C (dec.).

`CN(CC(=O)O)C[C@H]1CCc2cc(OCc3ccccc3)ccc2[C@H]1c1ccccc1.Cl` (relative stereo) returned a melting point of 200 to 210 °C.

Take `CN(CC(=O)O)C[C@H]1CCc2cc(OCC3CC3)ccc2[C@H]1c1ccccc1.Cl` (relative stereo): the melting point lay within 173 to 177 °C.

For the compound `COc1ccc2c(c1)CC[C@H](CN(C)CC(=O)[O-])[C@@H]2c1ccccc1.[Li+]` (relative stereo) [Example (−)-4, (−)-Lithium cis-N-methyl-N-(6-methoxy-1-phenyl-1,2,3,4-tetrahydronaphthalen-2-ylmethyl) aminomethylcarboxylate], the “pIC50, Inhibition of glycine transport by hGlyT-1” value in data set [1] was 6.8.

Regarding `CN(CC(=O)O)CC1CCc2cc(C(F)(F)F)ccc2C1c1ccc(F)cc1` (single isomer, unassigned; (-)) (as salt: salt) [Example (−)-8, (−)-Lithium N-methyl-N-[1-(4-fluorophenyl)-6-trifluoromethyl-1,2,3,4-tetrahydronaphthalen-2-ylmethyl] aminomethylcarboxylate], the melting point is 161 to 164 °C.

As for `CN(CC(=O)O)CC1CCc2cc(OCC(C)(C)C)ccc2C1c1ccccc1` (single isomer, unassigned; (-)) (as salt: salt) [Example (−)-34, (−)-Lithium cis-N-methyl-N-[1-phenyl-6-(2,2-dimethylpropyloxy)-1,2,3,4-tetrahydronaphthalen-2-ylmethyl] aminomethylcarboxylate], the melting point lay in the range of 168 to 170 °C.

For the compound `CN(CC(=O)O)CC1CCc2cc(C(F)(F)F)ccc2C1c1ccc(F)cc1` (single isomer, unassigned; (-)) [Example (−)-8, (−)-Lithium N-methyl-N-[1-(4-fluorophenyl)-6-trifluoromethyl-1,2,3,4-tetrahydronaphthalen-2-ylmethyl] aminomethylcarboxylate], in data set [1], the IC50 is 50.1 nM.

Regarding `CN(CC(=O)O)CC1CCc2cc(Oc3ccccc3)ccc2C1c1ccccc1` (single isomer, unassigned; (-)) [Example (−)-17, (−)-Sodium cis-N-methyl-N-(6-phenoxy-1-phenyl-1,2,3,4-tetrahydronaphthalen-2-ylmethyl) aminomethylcarboxylate], in data set [1], the IC50 was 100 nM.

As to `Cc1ccc2c(c1)CCC(CN(C)CC(=O)O)C2c1ccccc1` (single isomer, unassigned; (-)) [Example (−)-23, (−)-Sodium cis-N-methyl-N-(6-methyl-1-phenyl-1,2,3,4-tetrahydronaphthalen-2-ylmethyl) aminomethylcarboxylate], the IC50 in data set [1] is 126 nM.

`CN(CC(=O)O)CC1CCc2cc(OCC(C)(C)C)ccc2C1c1ccccc1` (single isomer, unassigned; (-)) [Example (−)-34, (−)-Lithium cis-N-methyl-N-[1-phenyl-6-(2,2-dimethylpropyloxy)-1,2,3,4-tetrahydronaphthalen-2-ylmethyl] aminomethylcarboxylate]: in data set [1], the IC50 is 251 nM.
